Experimental data as given in ChEMBL document CHEMBL4402510, “Caprazamycins: Promising lead structures acting on a novel antibacterial target MraY” (Eur J Med Chem, 2019).
In brackets after ≈: the same amount, converted by molar mass.

What was measured:
[1] = tested on: Staphylococcus aureus; test: Antibacterial activity against methicillin resistant Staphylococcus aureus SR3637; type: functional
[2] = tested on: Enterococcus faecium; test: Antibacterial activity against Enterococcus faecium ATCC 19434; type: functional
[3] = tested on: Enterococcus faecalis; test: Antibacterial activity against Enterococcus faecalis ATCC 29212; type: functional
[4] = tested on: Enterococcus faecium; test: Antibacterial activity against Enterococcus faecium SR7917 (VRE); type: functional
[5] = tested on: Staphylococcus aureus; test: Antibacterial activity against methicillin susceptible Staphylococcus aureus ATCC 29213; type: functional
[6] = target: T1, Phospho-N-acetylmuramoyl-pentapeptide-transferase (Staphylococcus aureus, UniProt P0C1R8); test: Inhibition of MraY in Staphylococcus aureus
T1 sequence (P0C1R8 whole entry): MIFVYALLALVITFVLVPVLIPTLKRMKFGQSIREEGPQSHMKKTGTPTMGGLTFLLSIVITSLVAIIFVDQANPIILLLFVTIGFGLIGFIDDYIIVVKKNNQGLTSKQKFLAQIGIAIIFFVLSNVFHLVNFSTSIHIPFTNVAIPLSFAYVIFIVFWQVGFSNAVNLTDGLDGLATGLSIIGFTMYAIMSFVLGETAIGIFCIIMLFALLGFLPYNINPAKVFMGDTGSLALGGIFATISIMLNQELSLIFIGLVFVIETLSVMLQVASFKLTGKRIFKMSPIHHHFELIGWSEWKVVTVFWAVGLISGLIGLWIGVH

[7] = tested on: Enterococcus faecalis; test: Antibacterial activity against Enterococcus faecalis SR7914 (VRE); type: functional
[8] = target: T2, Phospho-N-acetylmuramoyl-pentapeptide-transferase (Aquifex aeolicus (strain VF5), UniProt O66465); test: Inhibition of MraY in Aquifex aeolicus
T2 sequence (O66465 whole entry): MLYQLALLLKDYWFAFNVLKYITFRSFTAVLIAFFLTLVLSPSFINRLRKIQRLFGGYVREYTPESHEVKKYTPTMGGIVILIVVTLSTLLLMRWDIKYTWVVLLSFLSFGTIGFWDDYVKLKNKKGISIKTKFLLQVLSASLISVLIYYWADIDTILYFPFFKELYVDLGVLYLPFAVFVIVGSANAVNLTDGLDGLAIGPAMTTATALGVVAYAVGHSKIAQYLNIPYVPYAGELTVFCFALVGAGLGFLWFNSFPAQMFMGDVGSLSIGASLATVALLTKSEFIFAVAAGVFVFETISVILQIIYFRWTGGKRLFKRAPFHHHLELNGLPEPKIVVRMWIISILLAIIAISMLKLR

[9] = tested on: Escherichia coli; test: Antibacterial activity against Escherichia coli ATCC 8730; type: functional
[10] = tested on: Citrobacter freundii; test: Antibacterial activity against Citrobacter freundii ATCC 8090; type: functional
[11] = tested on: Pseudomonas aeruginosa; test: Antibacterial activity against Pseudomonas aeruginosa ATCC 27853; type: functional
[12] = tested on: Staphylococcus aureus; test: Antibacterial activity against methicillin resistant Staphylococcus aureus ATCC 43300; type: functional
[13] = tested on: Staphylococcus aureus; test: Antibacterial activity against Staphylococcus aureus ATCC 25923; type: functional
[14] = tested on: Escherichia coli; test: Antibacterial activity against Escherichia coli K-12; type: functional
[15] = tested on: Mycolicibacterium phlei; test: Antibacterial activity against Mycobacterium phlei; type: functional
[16] = tested on: Mycobacterium tuberculosis; test: Antibacterial activity against Mycobacterium tuberculosis JCM 6384; type: functional
[17] = tested on: Streptococcus pneumoniae; test: Antibacterial activity against Streptococcus pneumoniae PCI 602; type: functional
[18] = tested on: Staphylococcus aureus; test: Antibacterial activity against methicillin resistant Staphylococcus aureus MS16526; type: functional
[19] = tested on: Mycolicibacterium vaccae; test: Antibacterial activity against Mycobacterium vaccae ATCC 15483; type: functional
[20] = tested on: Bacillus subtilis; test: Antibacterial activity against Bacillus subtilis PCI 219; type: functional
[21] = tested on: Staphylococcus aureus; test: Antibacterial activity against methicillin resistant Staphylococcus aureus No. 5; type: functional
[22] = tested on: Mycobacterium tuberculosis; test: Antibacterial activity against Mycobacterium tuberculosis H37Rv; type: functional
[23] = tested on: Mycobacterium avium subsp. paratuberculosis; test: Antibacterial activity against Mycobacterium avium subsp. paratuberculosis ATCC 43015; type: functional
[24] = Antibacterial activity against Mycobacterium avium subsp. avium ATCC 25291; type: functional
[25] = tested on: Mycobacterium tuberculosis; test: Antibacterial activity against Mycobacterium tuberculosis Kurono; type: functional
[26] = tested on: Mycolicibacterium smegmatis; test: Antibacterial activity against Mycobacterium smegmatis ATCC 607; type: functional
[27] = tested on: Staphylococcus aureus; test: Antibacterial activity against Staphylococcus aureus FDA 209P; type: functional
[28] = tested on: Enterococcus faecalis; test: Antibacterial activity against t Enterococcus faecalis VRE after 20 hrs by NCCLS-based two-fold broth dilution method; type: functional; settings: read-out: MIC
[29] = tested on: Enterococcus faecalis; test: Antibacterial activity against t Enterococcus faecalis after 20 hrs by NCCLS-based two-fold broth dilution method; type: functional; settings: read-out: MIC

| SMILES | MIC [2] [µg/mL] | MIC [3] [µg/mL] | MIC [7] [µg/mL] | IC50 [8] [µM] | MIC [9] [µg/mL] | MIC [10] [µg/mL] | MIC [11] [µg/mL] | MIC [12] [µg/mL] | MIC [13] [µg/mL] | MIC [14] [µg/mL] | MIC [15] [µg/mL] | MIC [16] [µg/mL] | MIC [17] [µg/mL] | MIC [18] [µg/mL] | MIC [19] [µg/mL] | MIC [20] [µg/mL] | MIC [21] [µg/mL] | MIC [22] [µg/mL] | MIC [23] [µg/mL] | MIC [24] [µg/mL] | other results |
| --- | --- | --- | --- | --- | --- | --- | --- | --- | --- | --- | --- | --- | --- | --- | --- | --- | --- | --- | --- | --- | --- |
| CCCCCCCCCCCCCCCCC[C@H]1CN(C)[C@@H]([C@H](O[C@@H]2O[C@H](CN)[C@@H](O)[C@H]2O)[C@H]2O[C@@H](n3ccc(=O)[nH]c3=O)[C@H](O)[C@@H]2O)C(=O)N(C)[C@@H]1C(=O)O | 8 (≈ 10 µM) | 4 (≈ 5.01 µM) | 8 (≈ 10 µM) |  |  |  |  |  |  |  |  |  |  |  |  |  |  |  |  |  | MIC [1]: 8 µg/mL (≈ 10 µM); MIC [4]: 8 µg/mL (≈ 10 µM); MIC [5]: 8 µg/mL (≈ 10 µM); IC50 [6]: 6.9 µM |
| NC[C@H]1O[C@@H](O[C@@H](Cc2cn(Cc3ccc(COc4ccc(C(=O)c5ccccc5)cc4)cc3)nn2)[C@H]2O[C@@H](n3ccc(=O)[nH]c3=O)[C@H](O)[C@@H]2O)[C@H](O)[C@@H]1O | > 128 |  |  | 20 | > 128 | > 128 | > 128 | 32 (≈ 42.3 µM) | 64 (≈ 84.6 µM) |  |  |  |  |  |  |  |  |  |  |  |  |
| CCCCCCCCCCCCCCCCC[C@H]1CN[C@@H]([C@H](O[C@@H]2O[C@H](CN)[C@@H](O)[C@H]2O)[C@H]2O[C@@H](n3ccc(=O)[nH]c3=O)[C@H](O)[C@@H]2O)C(=O)N(C)[C@@H]1C(=O)O | 8 (≈ 10.2 µM) | 8 (≈ 10.2 µM) | 16 (≈ 20.4 µM) |  |  |  |  |  |  |  |  |  |  |  |  |  |  |  |  |  | MIC [1]: 8 µg/mL (≈ 10.2 µM); MIC [4]: 16 µg/mL (≈ 20.4 µM); MIC [5]: 8 µg/mL (≈ 10.2 µM); IC50 [6]: 3.8 µM |
| CCCCCCCCCCn1cc(C[C@H](O[C@@H]2O[C@H](CN)[C@@H](O)[C@H]2O)[C@H]2O[C@@H](n3ccc(=O)[nH]c3=O)[C@H](O)[C@@H]2O)nn1 | > 128 |  |  | 15 | > 128 | > 128 | > 128 | 64 (≈ 107 µM) | 128 (≈ 215 µM) |  |  |  |  |  |  |  |  |  |  |  |  |
| NC[C@H]1O[C@@H](O[C@@H](Cn2cc(CCCCCCCCCCc3ccccc3)nn2)[C@H]2O[C@@H](n3ccc(=O)[nH]c3=O)[C@H](O)[C@@H]2O)[C@H](O)[C@@H]1O | 32 (≈ 47.6 µM) |  |  | 30 | > 128 | > 128 | 64 (≈ 95.1 µM) | 16 (≈ 23.8 µM) | 64 (≈ 95.1 µM) |  |  |  |  |  |  |  |  |  |  |  |  |
| CCCCCCCCCCCCCCCCCCNC(=O)C1=CCN(C)[C@@H]([C@H](O[C@@H]2O[C@H](CN)[C@@H](O)[C@H]2O)[C@H]2O[C@@H](n3ccc(=O)[nH]c3=O)[C@H](O)[C@@H]2O)C(=O)N1C |  |  |  |  |  |  |  |  |  | > 100 | 3.13 (≈ 3.87 µM) | 0.78 (≈ 0.964 µM) | > 100 | 6.25 (≈ 7.73 µM) | 3.13 (≈ 3.87 µM) | < 0.2 | 6.25 (≈ 7.73 µM) | 1.56 (≈ 1.93 µM) | 0.39 (≈ 0.482 µM) | 0.78 (≈ 0.964 µM) | MIC [25]: 1.56 µg/mL (≈ 1.93 µM); MIC [26]: 6.25 µg/mL (≈ 7.73 µM); MIC [27]: 6.25 µg/mL (≈ 7.73 µM) |
| CCCCCCCCCCCC(=O)N[C@@H]1CCN[C@@H]([C@H](O[C@@H]2O[C@H](CN)[C@@H](O)[C@H]2O)[C@H]2O[C@@H](n3ccc(=O)[nH]c3=O)[C@H](O)[C@@H]2O)C1 |  | 4 (≈ 6.1 µM) | 4 (≈ 6.1 µM) |  |  |  |  |  |  |  |  |  |  |  |  |  |  |  |  |  | MIC [28]: 4 µg/mL (≈ 6.1 µM); MIC [29]: 4 µg/mL (≈ 6.1 µM) |
| CCCCCCNC(=O)C1=CCN(C)[C@@H]([C@H](O[C@@H]2O[C@H](CN)[C@@H](O)[C@H]2O)[C@H]2O[C@@H](n3ccc(=O)[nH]c3=O)[C@H](O)[C@@H]2O)C(=O)N1C |  |  |  |  |  |  |  |  |  | > 100 | 100 (≈ 156 µM) | 1.56 (≈ 2.43 µM) | > 100 | > 100 | 100 (≈ 156 µM) | 25 (≈ 39 µM) | > 100 | 3.16 (≈ 4.93 µM) | 0.78 (≈ 1.22 µM) | 12.5 (≈ 19.5 µM) | MIC [25]: 1.56 µg/mL (≈ 2.43 µM); MIC [26]: 50 µg/mL (≈ 78 µM); MIC [27]: > 100 µg/mL |
| CCCCCCCCCCCCCCCCCCCNC(=O)C1=CCN(C)[C@@H]([C@H](O[C@@H]2O[C@H](CN)[C@@H](O)[C@H]2O)[C@H]2O[C@@H](n3ccc(=O)[nH]c3=O)[C@H](O)[C@@H]2O)C(=O)N1C |  |  |  |  |  |  |  |  |  | > 100 | 25 (≈ 30.4 µM) | 0.78 (≈ 0.948 µM) | > 100 | 6.25 (≈ 7.59 µM) | 3.13 (≈ 3.8 µM) | 0.78 (≈ 0.948 µM) | 6.25 (≈ 7.59 µM) | 1.56 (≈ 1.9 µM) | 0.78 (≈ 0.948 µM) | 1.56 (≈ 1.9 µM) | MIC [25]: 1.56 µg/mL (≈ 1.9 µM); MIC [26]: 12.5 µg/mL (≈ 15.2 µM); MIC [27]: 6.25 µg/mL (≈ 7.59 µM) |
